Laboratory results as given in publication PMC4578755, “Development of novel cellular histone-binding and chromatin-displacement assays for bromodomain drug discovery” (Epigenetics & Chromatin, 2015).

What was measured:
[1] = target: T1, TRIM24-PB binding to endogenous histone H3 in HeLa TRIM24-PB cells (Homo sapiens, UniProt O15164); test: Cellular TRIM24/histone H3 AlphaLISA binding assay; format: cell-based; conditions: co-treated with SAHA, 2 h, 6 independent experiments, listed as TRIM24 inhibitor, read-out: Cell EC50 (AlphaLISA)
T1 construct: The FLAG-TRIM24-PB construct (residues 810–1050) was generated by PCR amplification; expressed in transfected cells
T1 sequence (O15164 810-1050): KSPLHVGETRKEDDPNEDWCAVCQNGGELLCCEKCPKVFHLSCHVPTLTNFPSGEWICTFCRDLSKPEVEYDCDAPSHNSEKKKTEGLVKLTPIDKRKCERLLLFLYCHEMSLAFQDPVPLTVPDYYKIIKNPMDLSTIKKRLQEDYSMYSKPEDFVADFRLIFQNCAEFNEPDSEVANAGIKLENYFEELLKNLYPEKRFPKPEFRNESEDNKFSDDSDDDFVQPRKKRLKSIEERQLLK
Procedure: Hela TRIM24-PB cells were maintained in DMEM medium supplemented with 10 % FBS and 5 µg/mL of Blasticidin. Cells were seeded (10,000/well, 40 µL) to 384-well white culture plates (PerkinElmer, #6007680) using a Multidrop 384 reagent dispenser (Thermo Scientific) and incubated overnight at 37 °C and 5 % CO2. On Day 2, the cells were co-treated with SAHA (10 µM) and test compound and incubated at 37 °C and 5 % CO2 for 2 h. The plates were washed twice with PBS (60 µL at RT) using a Biomek FX liquid handler (Beckman Coulter). […] Plates were read on Envision plate reader (PerkinElmer) using AlphaScreen protocol and all IC50 values (four-parameter logistic curve) were obtained using GraphPad Prism 6 software. […]
All EC50 values were calculated based on these POC values using four-parametric nonlinear regression (i.e., curve fitting) software (either Genedata Screener™ software version 11 or Graphpad Prism 6). For the cell-based AlphaLISA assay, the POC values were calculated using the following wells and process: (1) a “blank subtraction” was performed by subtracting the mean signal of the blank control wells (which contained media but lacked cells) from all of the measured values; (2) these corrected values were then used in the POC formula stated above. […] Average and standard Deviation (SD) values were calculated using the Harmony software (PerkinElmer). […]

[2] = target: T2, TRIM24-PB/histone H3 co-localization in HeLa TRIM24-PB cells (Homo sapiens, UniProt O15164); test: Proximity ligation assay (PLA) TRIM24/histone H3; format: cell-based; conditions: SAHA treatment; Alexa-conjugated secondary antibodies
T2 construct: The FLAG-TRIM24-PB construct (residues 810–1050) was generated by PCR amplification; expressed in transfected cells
T2 sequence (O15164 810-1050): T1 sequence (O15164 810-1050)
Procedure: Hela cells expressing FLAG-TRIM24-PHD-Bromo-V5 (TRIM24-PB) (20 K/100 µL) were seeded into 96-well plates (Corning Costar #CLS3603) in DMEM media supplemented with 10 % FBS and grown overnight. After treatment with SAHA (5 µM, 2 h), plates were washed with PBS (150ul per well) and fixed with 4 % paraformaldehyde (10 min at RT). PLA was performed using Duolink® In situ Red Starter Kit Mouse/Goat (Sigma-Aldrich, DUO92103), according to manufacturer’s recommendation. Primary antibody pair was: Goat anti-V5 (1:200 dilution; Bethyl #A190-119A) and Mouse anti-histone H3 (1:4000 dilution; Active Motif, #39763). Following PLA, secondary antibody Alexa Fluor®594 Donkey Anti-Goat (Invitrogen #A-11056) and Alexa Fluor®488 Donkey Anti-Mouse (Invitrogen #A-21202) were used to measure the total levels of V5 and histone H3. Using the High-Content Screening System Operetta with 40× magnification, cell images from 25 fields in each well were taken in 4 channels (Alexa488, Alexa594, Alexa647 and Hoechst). […] For each gated cell, we calculated the mean signal intensity for histone H3 (Alexa488 in the nucleus minus Alexa488 in the cytoplasm); TRIM24 (Alexa594 in the nucleus minus the […] intensity in the cytoplasm); and the mean number for the PLA signal (number of spots in nucleus). […]

| Compound | EC50 [1] [nM] | Mean nuclei levels of TRIM24 [2] |
| --- | --- | --- |
| Cc1nc(S(=O)(=O)Nc2cc3c(cc2Oc2cccc(OCC(C)C)c2)n(C)c(=O)n3C)cn1C [IACS-6558, N-{1,3-dimethyl-6-[3-(2-methylpropoxy)phenoxy]-2-oxo-2,3-dihydro-1H-1,3-benzodiazol-5-yl}-1,2-dimethyl-1H-imidazole-4-sulfonamide] | 1300 |  |
| O=C(CCCCCCC(=O)Nc1ccccc1)NO [SAHA, Suberoylanilide Hydroxamic Acid] |  | did not change |
